The record followed here is patent publication US9592407B2, “Pharmaceutical composition and uses thereof” (CHANG GUNG MEMORIAL HOSPITAL, LINKOU, priority 2012, dated 2017).

SMILES strings stand for the structures. Read-outs that look alike come from different tables or passages of the source.

As usually defined, the IC50 is the concentration needed to halve the response being measured.

Experiment [1] has as its system BAX. Briefly: BAX mitochondrial translocation and oligomerization in liver cancer cells (Example 4). It counts as cell-based, Human. The note with it: Hep3B and Mahlavu cells. The source says:
FIG. 6A illustrates the expression of NPM and BAX in the cytosol and the mitochondria of Mahlavu liver cancer cells following UV irradiation with or without transfected siRNA targeting NPM (NPM) or siRNA with scrambled sequences (NS). FIG. 6B illustrates the effect of siNPM and siNS on BAX dimmers (indicated with an asterisk) and BAX oligomers (twin-asterisk) in the mitochondria or the nuclei.
FIG. 6A illustrates cytoplasmic NPM increased after UV irradiation, whereas BAX increased in the cytosol and mitochondria after UV irradiation. Suppressing NPM expression by siRNA reduced the cytosolic BAX, while mitochondrial BAX level increased. […] Prohibitin (PHB) and glyceraldehyde 3-phosphate dehydrogenase (GAPDH) were used as the markers for mitochondrial and cytosolic components, respectively. Similar result for mitochondrial BAX enhancement was observed by inhibiting NPM with chemotherapeutic agents, such as staurosporin in Hep3B and Mahlavu cells.
A non-reducing condition for preparing cellular proteins was employed to validate the above findings.

The subject of experiment [2] is HeLa (Cervical). The experiment can be described thus: Combination drug treatment, Combination Index and IC50 (Example 6). In kind it is cell-based. The text has this: (§1) Chou: Theoretical Basis, Experimental Design, and Computerized Simulation of Synergism and Antagonism in Drug Combination Studies, Pharmacological Reviews.
Experiment [3] relates to Mahlavu (HCC). The description is as above. In kind it is cell-based, Human.
Source text: as §1

The subject of experiment [4] is NPM. The experiment can be described thus: Induction of NPM expression by cellular stresses (Example 2). In kind it is cell-based, Human. The note with it: HCC cell lines following exposure; cisplatin 5.5, 69, 6.4 μg/ml, doxorubicin 1.4, 8.8, 5 μg/ml. The text has this:
(§2) A subset of NPM was translocated to cytoplasm 6 hr after UV irradiation (indicated by an arrow in the right panel).
(§3) The expression of β-actin was used as the loading control. Simultaneous induction of BAX (pro-apoptosis) and NPM (anti-apoptosis) of cells upon cellular stress represents counteracting mechanisms regulating apoptosis versus survival response.

In experiment [5] the test system is BAX. Briefly: Induction of BAX expression by cellular stresses (Example 2). In kind it is cell-based, Human. The note with it: all three HCC cell lines following treatment.
Source text: as §2, §3

Setting [6] is: concentration of the named drug in Lapatinib + NSC348884 combination therapy, 72 hours, read-out: IC50 Combination Therapy.
[7] abbreviates: monotherapy, 72 hours after exposure, read-out: IC50 Monotherapy.
Setting [8] is: Homo sapiens, concentration of the named drug in Lapatinib + NSC348884 combination therapy, 72 hours, read-out: IC50 Combination Therapy.
Setting [9] is: Homo sapiens, monotherapy, 72 hours after exposure, read-out: IC50 Monotherapy.

For the compound `CN[C@@H]1C[C@H]2O[C@@](C)([C@@H]1OC)n1c3ccccc3c3c4c(c5c6ccccc6n2c5c31)C(=O)NC4` [staurosporin], in experiment [1], the “mitochondrial BAX” value was “enhancement”.
With `Cc1ccc2nc(CN(CCN(Cc3nc4ccc(C)cc4[nH]3)Cc3nc4ccc(C)cc4[nH]3)Cc3nc4ccc(C)cc4[nH]3)[nH]c2c1` [NSC348884], the concentration for half-maximal inhibition (IC50) in experiment [2] (setting [6]) turned out to be 4.92 µM; in experiment [2] (setting [7]) it was 6.24 µM; in experiment [3] (setting [6]), 3.84 µM; in experiment [3] (setting [7]), 6.15 µM.
With `N.N.[Cl][Pt][Cl]` [cisplatin], in experiment [4], the NPM expression entry is given as “upregulated”. Also, in experiment [5], the BAX expression result is on record as “increased”.
With `CS(=O)(=O)CCNCc1ccc(-c2ccc3ncnc(Nc4ccc(OCc5cccc(F)c5)c(Cl)c4)c3c2)o1` [Lapatinib], the half-maximal inhibitory concentration (IC50) in experiment [2] (setting [8]) amounted to 18.4 µM; in experiment [2] (setting [9]) it was 20.8 µM; in experiment [3] (setting [8]) it was 14.4 µM; in experiment [3] (setting [9]) it was 12.8 µM.
For the compound `COc1cccc2c1C(=O)c1c(O)c3c(c(O)c1C2=O)C[C@@](O)(C(=O)CO)C[C@@H]3O[C@H]1C[C@H](N)[C@H](O)[C@H](C)O1` [doxorubicin], in experiment [4], the NPM expression entry was “upregulated”. Further, the BAX expression result in experiment [5] was “increased”.
